Source: patent publication US20260217677A1, “ORGANIC COMPOUNDS AS NLRP3 INHIBITORS” (KODIAK SCIENCES, INC., priority 2023, published 2026)
Like-named read-outs stand apart in the source and are kept apart here.

Test system: IL-1β release in U937 cells after NLRP3 activation
Test: IL-1β release inhibition in U937 cells (MSD V-Plex)
Conditions: PMA-differentiated U937 cells, 1 μg/mL LPS 3 h, compound 30 min, 10 mM nigericin 1 h
[1] = Homo sapiens, U-937, read-out: IL-1β IC50, Table 4
[2] = Homo sapiens, U-937, read-out: IL-1β IC50, Table 3

Structure (SMILES) | IC50 [1] [nM] | IC50 [2] [nM] | further results
Oc1cc(C(F)(F)F)ccc1-c1nnc(N[C@@H]2CCCN(C3CNC3)C2)c2c1COC2 [Example 99, (R)-2-(4-((1-(Azetidin-3-yl)piperidin-3-yl)amino)-5,7-dihydrofuro[3,4-d]pyridazin-1-yl)-5-(trifluoromethyl)phenol] | < 5 | – | –
Cc1cc(N[C@@H]2CCCN(CCNCC3CCS(=O)(=O)CC3)C2)nnc1-c1ccc(C(F)(F)F)cc1O [Example 109, (R)-4-(((2-(3-((6-(2-Hydroxy-4-(trifluoromethyl)phenyl)-5-methylpyridazin-3-yl)amino)piperidin-1-yl)ethyl)amino)methyl)tetrahydro-2H-thiopyran 1,1-dioxide] | 5 to 50 | – | –
Cc1cc(N[C@@H]2CCCN(C[C@H]3CCCN3)C2)nnc1-c1ccc(C(F)(F)F)cc1O [Example 107, 2-(4-Methyl-6-(((R)-1-(((R)-pyrrolidin-2-yl)methyl)piperidin-3-yl)amino)pyridazin-3-yl)-5-(trifluoromethyl)phenol] | 5 to 50 | – | –
Cc1cc(N[C@@H]2CCCN(CC(=O)N3CCC(O)CC3)C2)nnc1-c1ccc2sccc2c1O [Example 49, 2-[(3R)-3-{[6-(4-hydroxy-1-benzothiophen-5-yl)-5-methylpyridazin-3-yl]amino}piperidin-1-yl]-1-(4-hydroxypiperidin-1-yl)ethanone] | – | < 5 | –
Oc1cc(C(F)(F)F)ccc1-c1nnc(N[C@@H]2CCCN(CCN3CC[C@@H](O)C3)C2)c2c1COC2 [Example 36, (R)-1-(2-((R)-3-((4-(2-Hydroxy-4-(trifluoromethyl)phenyl)-5,7-dihydrofuro[3,4-d]pyridazin-1-yl)amino)piperidin-1-yl)ethyl)pyrrolidin-3-ol] | – | 5 to 50 | –
Cc1cc(N[C@@H]2CCCN(C3CCN(C(=O)N4CC(O)C4)CC3)C2)nnc1-c1ccc(C(F)(F)F)cc1O [Example 40, (R)-(3-((6-(2-Hydroxy-4-(trifluoromethyl)phenyl)-5-methylpyridazin-3-yl)amino)-[1,4′-bipiperidin]-1′-yl) (3-hydroxyazetidin-1-yl)methanone] | – | < 5 | –
O=C(CN1CCC[C@@H](Nc2nnc(-c3ccc(C(F)(F)F)cc3O)c3c2CNC3)C1)N1CCC(O)CC1 [Example 57, (R)-2-(3-((4-(2-Hydroxy-4-(trifluoromethyl)phenyl)-6,7-dihydro-5H-pyrrolo[3,4-d]pyridazin-1-yl)amino)piperidin-1-yl)-1-(4-hydroxypiperidin-1-yl)ethan-1-one] | – | 50 to 500 | –
Cc1c(-c2ccc(C(F)(F)F)cc2O)nnc2c1CCCN2[C@@H]1CCCN(CC(=O)N2CCC3(CC2)CC(O)C3)C1 [Example 43, 2-[(3R)-3-{3-[2-Hydroxy-4-(trifluoromethyl)phenyl]-4-methyl-5H,6H,7H-pyrido[2,3-c]pyridazin-8-yl}piperidin-1-yl]-1-{2-hydroxy-7-azaspiro[3.5]nonan-7-yl}ethanone] | – | 50 to 500 | –
O=C(CN1CCC[C@@H](Nc2nnc(-c3ccc(C(F)(F)F)cc3O)c3c2COC3)C1)N1CC[C@H](O)C1 [Compound 26, 2-((R)-3-((4-(2-Hydroxy-4-(trifluoromethyl)phenyl)-5,7-dihydrofuro[3,4-d]pyridazin-1-yl)amino)piperidin-1-yl)-1-((S)-3-hydroxypyrrolidin-1-yl)ethan-1-one] | – | 5 to 50 | –
Cc1cc(N[C@@H]2CCCN(C(=O)C3CCCC(O)C3)C2)nnc1-c1ccc(C(F)(F)F)cc1O (single isomer, unassigned) [Example 70 Fraction B] | – | – | IC50 (read-out: IL-1β IC50, Table 3): < 5 nM
Cc1c(N[C@@H]2CCCN(C(=O)C34CC(O)(C3)C4)C2)nnc(-c2ccc(C(F)(F)F)cc2O)c1C [Example 67, (R)-(3-((6-(2-hydroxy-4-(trifluoromethyl)phenyl)-4,5-dimethylpyridazin-3-yl)amino)piperidin-1-yl) (3-hydroxybicyclo[1.1.1]pentan-1-yl)methanone] | – | 5 to 50 | –
Cc1cc(N[C@@H]2CCCN(CC(=O)N3CCC(O)C3)C2)nnc1-c1ccc(C(F)(F)F)cc1O (stereo partly drawn) [Compound 1, 2-((R)-3-((6-(2-Hydroxy-4-(trifluoromethyl)phenyl)-5-methylpyridazin-3-yl)amino)piperidin-1-yl)-1-(3-hydroxypyrrolidin-1-yl)ethan-1-one] | – | 5 to 50 | –
Cc1c(N[C@@H]2CCCN(CC3CC(O)C3)C2)nnc(-c2ccc3sccc3c2O)c1C (stereo partly drawn) [Example 74, 5-(6-(((R)-1-(((1r,3R)-3-Hydroxycyclobutyl)methyl)piperidin-3-yl)amino)-4,5-dimethylpyridazin-3-yl)benzo[b]thiophen-4-ol] | – | < 5 | –
Cc1cc(N[C@@H]2CCCN(C(=O)C3CC4(CC(O)C4)C3)C2)nnc1-c1ccc(C(F)(F)F)cc1O (stereo partly drawn) [Example 61, (R)-(3-((6-(2-Hydroxy-4-(trifluoromethyl)phenyl)-5-methylpyridazin-3-yl)amino)piperidin-1-yl) (6-hydroxyspiro[3.3]heptan-2-yl)methanone] | – | 5 to 50 | –
Cc1cc(N[C@@H]2CCCN(C3CCC(O)CC3)C2)nnc1-c1ccc(C(F)(F)F)cc1O (single isomer, unassigned) [Example 54] | – | – | IC50 (read-out: IL-1β IC50, Table 3): < 5 nM
Cc1cc(N[C@@H]2CCCN(CC(=O)N3CC(N)C3)C2)nnc1-c1ccc(C(F)(F)F)cc1O [Example 77, (R)-1-(3-Aminoazetidin-1-yl)-2-(3-((6-(2-hydroxy-4-(trifluoromethyl)phenyl)-5-methylpyridazin-3-yl)amino)piperidin-1-yl)ethan-1-one] | 5 to 50 | – | –
Cc1c(-c2ccc(C(F)(F)F)cc2O)nnc2c1CCCN2[C@@H]1CCCN(C2CCN(C3CC(O)C3)CC2)C1 (stereo partly drawn) [Example 44, 2-{8-[(3R)-1′-(3-Hydroxycyclobutyl)-[1,4′-bipiperidin]-3-yl]-4-methyl-5H,6H,7H-pyrido[2,3-c]pyridazin-3-yl}-5-(trifluoromethyl)phenol] | – | 50 to 500 | –
Cc1cc(N[C@@H]2CCCN(CCNCC3COC3)C2)nnc1-c1ccc(C(F)(F)F)cc1O [Example 108, (R)-2-(4-Methyl-6-((1-(2-((oxetan-3-ylmethyl)amino)ethyl)piperidin-3-yl)amino)pyridazin-3-yl)-5-(trifluoromethyl)phenol] | 5 to 50 | – | –
Cc1cc(N[C@@H]2CCCN(CC(=O)NC3CC(O)C3)C2)nnc1-c1ccc(C(F)(F)F)cc1O (stereo partly drawn) [Compound 10, 2-((R)-3-((6-(2-Hydroxy-4-(trifluoromethyl)phenyl)-5-methylpyridazin-3-yl)amino)piperidin-1-yl)-N-((1r,3R)-3-hydroxycyclobutyl)acetamide] | – | 5 to 50 | –

The next lines start with results.

IC50 [1] [nM] | IC50 [2] [nM] | Structure (SMILES) | further results
– | < 5 | Cc1cc(N[C@@H]2CCCN(CC3CC4(CC(O)C4)C3)C2)nnc1-c1ccc(C(F)(F)F)cc1O (stereo partly drawn) [Example 62, (R)-6-((3-((6-(2-Hydroxy-4-(trifluoromethyl)phenyl)-5-methylpyridazin-3-yl)amino)piperidin-1-yl)methyl)spiro[3.3]heptan-2-ol] | –
50 to 500 | – | Cc1cc(N[C@@H]2CCCN(C3CCN(C(=O)N4CCC(N)CC4)CC3)C2)nnc1-c1ccc(C(F)(F)F)cc1O [Example 87, (R)-(4-Aminopiperidin-1-yl) (3-((6-(2-hydroxy-4-(trifluoromethyl)phenyl)-5-methylpyridazin-3-yl)amino)-[1,4′-bipiperidin]-1′-yl)methanone] | –
– | < 5 | Cc1cc(N[C@@H]2CCCN(C3CCC(O)CC3)C2)nnc1-c1ccc(C(F)(F)F)cc1O (single isomer, unassigned) [Example 53] | –
– | < 5 | Cc1cc(N[C@@H]2CCCN(CC34CC(O)(C3)C4)C2)nnc1-c1ccc(C(F)(F)F)cc1O [Example 64, (R)-3-((3-((6-(2-Hydroxy-4-(trifluoromethyl)phenyl)-5-methylpyridazin-3-yl)amino)piperidin-1-yl)methyl) bicyclo[1.1.1]pentan-1-ol] | –
– | < 5 | Cc1cc(N[C@@H]2CCCN(CC3CC(O)C3)C2)nnc1-c1ccc2sccc2c1O (stereo partly drawn) [Example 52, 5-(6-(((R)-1-(((1r,3R)-3-Hydroxycyclobutyl)methyl)piperidin-3-yl)amino)-4-methylpyridazin-3-yl)benzo[b]thiophen-4-ol] | –
– | 50 to 500 | Cc1cc(-c2ccc(C(F)(F)F)cc2O)nnc1N[C@@H]1CCCN(CC(=O)N2CC[C@H](O)C2)C1 [Example 31, 2-((R)-3-((6-(2-Hydroxy-4-(trifluoromethyl)phenyl)-4-methylpyridazin-3-yl)amino)piperidin-1-yl)-1-((S)-3-hydroxypyrrolidin-1-yl)ethan-1-one] | –
5 to 50 | – | Cc1cc(C(F)(F)F)cc(O)c1-c1ccc(N[C@@H]2CCCN(C3CNC3)C2)nn1 [Example 88, (R)-2-(6-((1-(Azetidin-3-yl)piperidin-3-yl)amino)pyridazin-3-yl)-3-methyl-5-(trifluoromethyl)phenol] | –
5 to 50 | – | Cc1cc(N[C@@H]2CCCN(CC(=O)N3C[C@H]4CNC[C@H]4C3)C2)nnc1-c1ccc(C(F)(F)F)cc1O [Example 112, 1-((3aR,6aS)-Hexahydropyrrolo[3,4-c]pyrrol-2 (1H)-yl)-2-((R)-3-((6-(2-hydroxy-4-(trifluoromethyl)phenyl)-5-methylpyridazin-3-yl)amino)piperidin-1-yl)ethan-1-one] | –
– | < 5 | Cc1cc(N[C@@H]2CCCN(C[C@H]3C[C@@H](O)C3)C2)nnc1-c1ccc2sccc2c1O [Example 51, 5-(6-(((R)-1-(((1s,3S)-3-Hydroxycyclobutyl)methyl)piperidin-3-yl)amino)-4-methylpyridazin-3-yl)benzo[b]thiophen-4-ol] | –
50 to 500 | – | Cc1cc(N[C@@H]2CCCN(CC(=O)N(C)CCN)C2)nnc1-c1ccc(C(F)(F)F)cc1O [Example 79, (R)—N-(2-Aminoethyl)-2-(3-((6-(2-hydroxy-4-(trifluoromethyl)phenyl)-5-methylpyridazin-3-yl)amino)piperidin-1-yl)-N-methylacetamide] | –
– | 50 to 500 | O=C(CN1CCC[C@@H](Nc2nnc(-c3ccc(F)cc3O)c3c2CCC3)C1)N1CCC(O)CC1 [Compound 20, 2-[(3R)-3-{[4-(4-Fluoro-2-hydroxyphenyl)-5H,6H,7H-cyclopenta[d]pyridazin-1-yl]amino}piperidin-1-yl]-1-(4-hydroxypiperidin-1-yl) ethenone] | –
